Measurements: the NIST ThermoML archive (doi:10.1021/je2009736)

Test: xn = mol fraction of the nth substance listed
Details: 101 kPa, Liquid, Vibrating tube method

C[SiH]1O[SiH](C)O[SiH](C)O[SiH](C)O1 (stereo not drawn) [2,4,6,8-tetramethyl-1,3,5,7,2,4,6,8-tetroxatetrasilocane] + Cc1ccccc1
mass density [kg/m3]
Details	288.15 K	298.15 K	308.15 K
x1 = 0.0499	886.6	877.08	867.53
x1 = 0.0999	899.94	890.19	880.4
x1 = 0.15	911.67	901.66	891.68
x1 = 0.2	921.98	911.75	901.57
x1 = 0.25	931.15	920.71	910.33
x1 = 0.3	939.31	928.7	918.15
x1 = 0.3502	946.71	935.91	925.11
x1 = 0.4	953.26	942.25	931.31
x1 = 0.4501	959.23	948.05	936.94
x1 = 0.5004	964.63	953.32	942.01
x1 = 0.5504	969.56	958.11	946.61
x1 = 0.5998	973.98	962.38	950.74
x1 = 0.6497	978.02	966.26	954.47
x1 = 0.6994	981.74	969.83	957.9
x1 = 0.7497	985.15	973.12	961.05
x1 = 0.8	988.34	976.19	963.99
x1 = 0.8494	991.18	978.9	966.61
x1 = 0.8995	993.85	981.45	969.04

C[SiH]1O[SiH](C)O[SiH](C)O[SiH](C)O1 (stereo not drawn) [2,4,6,8-tetramethyl-1,3,5,7,2,4,6,8-tetroxatetrasilocane] + Cc1cccc(C)c1
mass density [kg/m3]
Details	288.15 K	298.15 K	308.15 K
x1 = 0.05	882	873.13	864.29
x1 = 0.1001	894.34	885.16	876.06
x1 = 0.15	905.42	896	886.6
x1 = 0.1999	915.45	905.8	896.12
x1 = 0.2498	924.55	914.65	904.73
x1 = 0.2999	932.94	922.8	912.66
x1 = 0.35	940.55	930.19	919.83
x1 = 0.3995	947.41	936.84	926.34
x1 = 0.4504	953.92	943.11	932.41
x1 = 0.5	959.71	948.69	937.79
x1 = 0.55	965.11	953.9	942.81
x1 = 0.5996	970.04	958.65	947.34
x1 = 0.65	974.69	963.1	951.62
x1 = 0.6995	978.87	967.14	955.47
x1 = 0.7495	982.81	970.92	959.07
x1 = 0.7996	986.48	974.42	962.42
x1 = 0.8498	989.84	977.65	965.47
x1 = 0.8994	992.98	980.64	968.32
